Measurements published in patent EP4541796A1, “EXATECAN DERIVATIVES AND USE THEREOF” (Hangzhou Adcoris Biopharma Co., Ltd, priority 2022, dated 2024).
Read-outs that look alike come from different tables or passages of the source.

Experiments:
[1] = system: esophageal cancer cells OE33; assay: In vitro inhibitory activity of compounds (small molecule toxins), CCK-8 cell growth assay; type: cell-based; settings: Homo sapiens
Method: (§1) Human esophageal cancer cells OE33, and human breast adenocarcinoma cells SK-BR-3 were cultured in RPMI1640 (Cellmax) containing 10% fetal bovine serum (Cellmax), respectively. Cells in the exponential growth phase were diluted to a concentration of 1×10^5cells/mL by culture medium and added to 96-well cell culture plates at 100µL per well, then incubated overnight in a 37°C incubator with 5% CO2. On the following day, the small molecules were diluted with culture medium to 10,000 nM, 2,000 nM, 400 nM, 80 nM, 16 nM, 3.2 nM, 0.64 nM, 0.13 nM, respectively, and the diluted compounds were added to 96-well cell culture plates at 2 µL per well, with three replicate wells set-up for each concentration, and for the negative and blank control groups, in which the compounds had not been added, 2 µL of dilution was added per well. After the addition, the plates were returned to the 37°C incubator with 5% CO2 to continue incubation for 72 h. After incubation, the cell culture plates were removed, and the culture medium was aspirated using a pipette. Then, 100µL of culture medium containing 10% CCK-8 was added to each well, and the plates were incubated at 37°C for 3 hours. After incubation, the plates were removed, kept in the dark, and placed in ELISAplate. Absorbance was measured at 630nm as the reference wavelength and 450nm as the test wavelength. The IC50 values (Tables 1-3) were calculated using the four-parameter logistic regression method in GraphPad, based on the absorbance values. DNA topoisomerase I inhibitor Dxd was used as positive control drug.

[2] = system: breast adenocarcinoma cells SK-BR-3; assay: as above; type: cell-based; settings: Homo sapiens; Inhibitory activity against SK-BR-3; small molecules, 72 h incubation
Method: as §1

[3] = Inhibitory activity against OE33, small molecules, 72 h incubation, read-out: IC50/nM
[4] = OE33 cells, read-out: IC50 values for inhibiting the growth of esophageal cancer cells

Row | Compound | IC50 [1, 3] [nM] | IC50 [1, 4] [nM] | IC50 [2] [nM]
1 | CC[C@@]1(O)C(=O)OCc2c1cc1n(c2=O)Cc2c-1nc1cc(F)c(C)c3c1c2[C@@H](NC(=O)CNO)CC3 [Compound 6, 2-hydroxyaminoacetyl exatecan] | 50 to 100 | – | –
2 | CC[C@@]1(O)C(=O)OCc2c1cc1n(c2=O)Cc2c-1nc1cc(F)c(C)c3c1c2[C@@H](NC(=O)CN(C)O)CC3 [Compound 11, 2-N-methylhydroxyaminoacetyl exatecan] | 50 to 100 | – | –
3 | CCONCC(=O)N[C@H]1CCc2c(C)c(F)cc3nc4c(c1c23)Cn1c-4cc2c(c1=O)COC(=O)[C@]2(O)CC [Compound 12, 2-ethoxyaminoacetyl exatecan] | 50 to 100 | – | –
4 | CC[C@@]1(O)C(=O)OCc2c1cc1n(c2=O)Cc2c-1nc1cc(F)c(C)c3c1c2[C@@H](NC(=O)CNOC)CC3 [Compound 7, 2-methoxyaminoacetyl exatecan] | < 50 | < 10 | –
5 | CC[C@@]1(O)C(=O)OCc2c1cc1n(c2=O)Cc2c-1nc1cc(F)c(C)c3c1c2[C@@H](NC(=O)CN(C)NC)CC3 [Compound 10, 2-N-methyl-N-methylaminoacetyl exatecan] | 50 to 100 | – | –
6 | CC[C@@]1(O)C(=O)OCc2c1cc1n(c2=O)Cc2c-1nc1cc(F)c(C)c3c1c2[C@@H](NC(=O)N(C)NC)CC3 [Compound 3, Exatecan-N',N-dimethylaminourea] | < 50 | < 10 | < 50
7 | CC[C@@]1(O)C(=O)OCc2c1cc1n(c2=O)Cc2c-1nc1cc(F)c(C)c3c1c2[C@@H](NC(=O)C1(N)COC1)CC3 [Compound 13, 3-aminooxetane-3-acetyl exatecan] | < 50 | < 10 | < 50
8 | CC[C@@]1(O)C(=O)OCc2c1cc1n(c2=O)Cc2c-1nc1cc(F)c(C)c3c1c2[C@@H](NC(=O)CONC)CC3 [Compound 8, 2-methylaminooxyacetyl exatecan] | < 50 | < 10 | < 50
9 | CC[C@@]1(O)C(=O)OCc2c1cc1n(c2=O)Cc2c-1nc1cc(F)c(C)c3c1c2[C@@H](NC(=O)C(=O)NN)CC3 [Compound 4, Exatecan-N'-amino oxalyldiamine] | 50 to 100 | – | 50 to 100
10 | CC[C@@]1(O)C(=O)OCc2c1cc1n(c2=O)Cc2c-1nc1cc(F)c(C)c3c1c2[C@@H](NC(=O)N(C)N)CC3 [Compound 2, Exatecan-N-methyl-N-aminourea] | < 50 | < 10 | –
11 | CC[C@@]1(O)C(=O)OCc2c1cc1n(c2=O)Cc2c-1nc1cc(F)c(C)c3c1c2[C@@H](NC(=O)CN(C)N)CC3 [Compound 9, 2-N-methyl-N-aminoacetyl exatecan] | < 50 | < 10 | –
12 | CC[C@@]1(O)C(=O)OCc2c1cc1n(c2=O)Cc2c-1nc1cc(F)c(C)c3c1c2[C@@H](NC(=O)NN)CC3 [Compound 1, Exatecan-N-aminourea] | 50 to 100 | – | 50 to 100
13 | CC[C@@]1(O)C(=O)OCc2c1cc1n(c2=O)Cc2c-1nc1cc(F)c(C)c3c1c2[C@@H](NC(=O)C(=O)N(C)N)CC3 [Compound 5, Exatecan N'-amino-N-methyloxalyldiamine] | 50 to 100 | – | < 50
14 | CC[C@@]1(O)C(=O)OCc2c1cc1n(c2=O)Cc2c-1nc1cc(F)c(C)c3c1c2[C@@H](NC(=O)CO)CC3 [Dxd, reference compound] | < 50 | – | < 50
